Measured values taken from ChEMBL document CHEMBL1914379, “Challenges of drug discovery in novel target space. The discovery and evaluation of PF-3893787: a novel histamine H4 receptor antagonist” (Bioorg Med Chem Lett, 2011).
The source made the active and inactive calls. The calls are words filed in the database; no cut-off is given here.

Legend:
Rattus norvegicus [1] = assay: Toxicity in rat assessed as mortality at high dose, po for 7 days; type: organism-based; conditions: in vivo, 168 h
[2] = Metabolic stability in rat liver microsomes; type: ADME, Microsome; conditions: read-out: Stability
Histamine H4 receptor [3] = molecular target: T1, Histamine H4 receptor (Homo sapiens, UniProt Q9H3N8); assay: Displacement of [3H]-histamine from full length human H4R expressed in HEK293 cells; type: cell-based
T1 sequence (Q9H3N8 whole entry): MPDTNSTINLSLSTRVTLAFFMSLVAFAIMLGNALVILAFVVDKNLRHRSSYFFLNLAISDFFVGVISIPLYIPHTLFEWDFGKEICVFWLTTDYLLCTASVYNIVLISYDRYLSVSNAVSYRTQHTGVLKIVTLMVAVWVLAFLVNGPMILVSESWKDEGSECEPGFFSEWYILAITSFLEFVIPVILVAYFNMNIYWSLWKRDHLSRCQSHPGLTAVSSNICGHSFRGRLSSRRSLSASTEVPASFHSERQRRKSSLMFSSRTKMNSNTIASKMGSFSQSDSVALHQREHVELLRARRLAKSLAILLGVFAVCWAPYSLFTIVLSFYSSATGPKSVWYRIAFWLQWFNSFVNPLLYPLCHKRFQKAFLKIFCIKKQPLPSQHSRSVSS

Histamine H4 receptor [4] = molecular target: T1, Histamine H4 receptor; assay: Antagonist activity at full length human H4R expressed in HEK293 cells assessed as reversal of forskolin-induced cAMP production by CRE-beta-lactamase reporter gene assay; type: functional, cell-based
[5] = Metabolic stability in human liver microsomes; type: ADME, Microsome; conditions: read-out: Stability
[6] = Clearance in rat at 1 mg/kg, iv and 1 mg/kg, po; type: ADME, organism-based; conditions: in vivo
[7] = Volume of distribution in rat at 1 mg/kg, iv and 1 mg/kg, po; type: ADME, organism-based; conditions: in vivo
[8] = Half life in rat at 1 mg/kg, iv and 1 mg/kg, po; type: ADME, organism-based; conditions: in vivo
[9] = Oral bioavailability in rat at 1 mg/kg; type: ADME, organism-based; conditions: in vivo
Rattus norvegicus [10] = assay: Toxicity in po dosed rat assessed as lymphoid depletion from spleen for 4 days; type: organism-based; conditions: in vivo, 96 h
Rattus norvegicus [11] = assay: Toxicity in po dosed rat assessed as lymphoid depletion from thymus for 4 days; type: organism-based; conditions: in vivo, 96 h
Rattus norvegicus [12] = assay: Toxicity in po dosed rat assessed as lymphoid depletion from gut for 4 days; type: organism-based; conditions: in vivo, 96 h
Rattus norvegicus [13] = assay: Toxicity in po dosed rat assessed as decrease in reticulocyte counts for 4 days; type: organism-based; conditions: in vivo, 96 h
Rattus norvegicus [14] = assay: Toxicity in po dosed rat assessed as decrease in erythropoiesis for 4 days; type: organism-based, Erythrocyte; conditions: in vivo, 96 h
Rattus norvegicus [15] = assay: Induction of pro-inflammatory response in rat dosed orally for 4 days; type: functional, organism-based
Histamine H4 receptor [16] = molecular target: T1, Histamine H4 receptor; assay: Antagonist activity at full length human H4R expressed in HEK293 cells assessed as inhibition of forskolin-induced cAMP responsive element-beta-lactamase activity at 15 uM; type: functional, cell-based
Canis familiaris = assay: Toxicity in dog assessed as adverse events dosed orally for 7 days; type: organism-based, Canis lupus familiaris; conditions: in vivo, po, 168 h
HEK-293T [17] = assay: Agonist activity at macaque H4R expressed in HEK293T cells assessed as reversal of forskolin-induced cAMP production by CRE-beta-lactamase reporter gene assay; type: functional, cell-based; conditions: Macaca mulatta
HEK-293T [18] = assay: Agonist activity at dog H4R expressed in HEK293T cells assessed as reversal of forskolin-induced cAMP production by CRE-beta-lactamase reporter gene assay; type: functional, cell-based; conditions: Canis lupus familiaris
[19] = molecular target: T2, Histamine H4 receptor (Cavia porcellus) (UniProt Q91ZY3); assay: Agonist activity at guinea pig H4R expressed in HEK293T cells assessed as reversal of forskolin-induced cAMP production by CRE-beta-lactamase reporter gene assay; type: functional, cell-based; conditions: HEK-293T
T2 sequence (whole entry): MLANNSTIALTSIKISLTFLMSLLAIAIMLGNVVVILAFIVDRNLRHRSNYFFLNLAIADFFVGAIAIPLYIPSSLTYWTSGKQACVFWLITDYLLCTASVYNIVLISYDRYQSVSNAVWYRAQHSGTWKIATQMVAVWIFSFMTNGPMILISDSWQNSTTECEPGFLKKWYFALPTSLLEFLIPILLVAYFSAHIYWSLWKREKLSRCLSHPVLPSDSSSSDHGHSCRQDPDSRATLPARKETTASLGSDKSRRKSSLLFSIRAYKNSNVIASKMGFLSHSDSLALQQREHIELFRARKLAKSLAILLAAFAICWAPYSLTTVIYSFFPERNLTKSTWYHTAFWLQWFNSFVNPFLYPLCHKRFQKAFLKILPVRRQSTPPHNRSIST

[20] = Lipophilicity, log D of the compound; type: physicochemical; conditions: octanol/water
[21] = Displacement of [3H]-histamine from macaque H4R expressed in HEK293T cells; type: cell-based, Macaca mulatta; conditions: hek-293t
[22] = Displacement of [3H]-histamine from dog H4R expressed in HEK293T cells; type: cell-based, Canis lupus familiaris; conditions: hek-293t

With `CNC1CN(c2cc(N)nc(NCC3CC3)n2)C1` the Activity (Rattus norvegicus [1]) was “Toxic”, the microsomal CLint [2] was < 8.5 µL/min/mg and the Ki (Histamine H4 receptor [3]) was 9.07 µM. The Ki (Histamine H4 receptor [4]) was > 2 µM.

Compound `CN1CCN(c2cc(NCCC(C)(C)C)ncn2)CC1` has a Ki (Histamine H4 receptor [4]) of 0.092 µM.

For `CN1C[C@@H]2CN(C(=O)c3nc4cc(F)c(F)cc4[nH]3)C[C@@H]2C1`, the microsomal CLint [5] was < 7 µL/min/mg, the microsomal CLint [2] was 10 µL/min/mg and the Ki (Histamine H4 receptor [3]) was 0.128 µM. For the same compound, the Ki (Histamine H4 receptor [4]) was 0.053 µM, the clearance [6] was 59 mL/min/kg and the Vd [7] was 4.1 L/kg. For the same compound, the half-life [8] was 48 min, the bioavailability [9] was 50% and the Activity (Rattus norvegicus [10]) was “Dose-dependent effect”. For the same compound, the Activity (Rattus norvegicus [11]) was “Dose-dependent effect”, the Activity (Rattus norvegicus [12]) was “Dose-dependent effect” and the Activity (Rattus norvegicus [13]) was “Toxic”. The Activity (Rattus norvegicus [14]) was “Toxic” and the Activity (Rattus norvegicus [15]) was “Active”.

`CC(C)(C)CCNc1cc(NC2CCN(Cc3ccc(CO)o3)C2)ncn1` (racemic) gave an inhibition (Histamine H4 receptor [16]) of 73%.

For `CNC1CN(c2cc(NCCC(C)(C)C)nc(N)n2)C1`, the microsomal CLint [2] was 33 µL/min/mg, the Activity (Canis familiaris) was “Non-toxic” and the Ki (Histamine H4 receptor [4]) was 0.0015 µM. For the same compound, the Activity (Rattus norvegicus [10]) was “Non-toxic”, the Activity (Rattus norvegicus [11]) was “Non-toxic” and the Activity (Rattus norvegicus [12]) was “Non-toxic”. The Activity (Rattus norvegicus [13]) was “Non-toxic” and the Activity (Rattus norvegicus [14]) was “Non-toxic”.

For `CN1CCN(C(=O)c2cc3cc(Cl)ccc3[nH]2)CC1` [JNJ-7777120], the Activity (HEK-293T [17]) was “Active”, the Activity (HEK-293T [18]) was “Active” and the Activity [19] was “Active”. For the same compound, the microsomal CLint [5] was 28 µL/min/mg, the microsomal CLint [2] was 61 µL/min/mg and the logD [20] was 2.6. It also gave a pKi [21] of 7.17 and a pKi [22] of 6.89.
